Experimental data published in PubChem BioAssay AID1552 (Sanford-Burnham Center for Chemical Genomics, 2009).
Active and inactive are the calls of the source. No rule for the calls is given here.

target: Ubiquitin-conjugating enzyme E2 N (Homo sapiens) (UniProt P61088); assay: UBE2N binders by NMR, biophysical, purified protein (AID 1552); details: NMR binding to purified UBE2N
Sequence (P61088 whole entry, looked up): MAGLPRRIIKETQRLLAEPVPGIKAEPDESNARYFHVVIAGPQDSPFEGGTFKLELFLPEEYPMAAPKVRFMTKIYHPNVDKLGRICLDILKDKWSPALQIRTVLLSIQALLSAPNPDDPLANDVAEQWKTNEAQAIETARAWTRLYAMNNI

Q: `O=C(O)C1CSC(c2ccccc2)N1` (stereo not drawn) was tested. Which Kd did it give?
A: > 4 mM (inactive)

Q: Which Kd does the source give for `OC1CNCc2cc3c(cc21)OCCO3` (stereo not drawn) here?
A: > 4 mM (inactive)

Q: With `C#CCCCCCCCCCCCc1ccco1` as the compound, how does the Kd read?
A: > 4 mM (inactive)

Q: `CC(C)(C)NC(=O)CN1C(=O)c2ccccc2S1(=O)=O` was tested. Which Kd did it give?
A: > 4 mM (inactive)

Q: For `CN1C2CC3C[C@H]1C(O3)C2O` (stereo partly drawn), which Kd is on record?
A: > 4 mM (inactive)

Q: For `CCNC(=S)N1CCCC(C(N)=O)C1` (stereo not drawn), which Kd is on record?
A: > 4 mM (inactive)

Q: Which Kd does the source give for `COC(=O)C[C@@H]1C2(C)C(=O)[C@@H](CC3=C4C=C(OC)O[C@@H](c5ccoc5)[C@]4(C)CCC32)[C@H](O)C1(C)C` (stereo partly drawn) here?
A: > 4 mM (inactive)

Q: `O=C(O)C1CCN(S(=O)(=O)c2cccs2)CC1` was tested. Which Kd did it give?
A: > 4 mM (inactive)

Q: How did the Kd turn out when `Nc1ccc(N2CCOCC2)c(Cl)c1` was run?
A: > 4 mM (inactive)

Q: For `Cc1oc(-c2ccccc2)nc1CC(=O)O`, which Kd is on record?
A: > 4 mM (inactive)

Q: `Cc1cc(C)c(NC(=O)CN2CCC(O)CC2)c(C)c1` was tested. Which Kd did it give?
A: > 4 mM (inactive)

Q: For `Cc1occc1C(=O)Nc1nnc(-c2ccncc2)s1`, which Kd is on record?
A: > 4 mM (inactive)

Q: With `O=C(O)C(Cc1cnc[nH]1)N1C(=O)c2ccccc2C1=O` (stereo not drawn) as the compound, how does the Kd read?
A: > 4 mM (inactive)

Q: How did the Kd turn out when `O=C(Nc1ccccc1F)c1ccncc1` was run?
A: > 4 mM (inactive)

Q: Which Kd does the source give for `COc1cnn(Cc2ccccc2)c(=O)c1Cl` here?
A: > 4 mM (inactive)

Q: With `CSc1nc(C)cc(-n2ccc(=O)[nH]c2=O)n1` as the compound, how does the Kd read?
A: > 4 mM (inactive)

Q: `COC1C(O)C(O)C(O)[C@@H](O)C1O` (stereo partly drawn) was tested. Which Kd did it give?
A: > 4 mM (inactive)

Q: `O=C(O)C1CN2CCC1CC2` (stereo not drawn) was tested. Which Kd did it give?
A: > 4 mM (inactive)

Q: For `O=c1[nH]cc(CN2CCOCC2)c(=O)[nH]1`, which Kd is on record?
A: > 4 mM (inactive)

Q: Which Kd does the source give for `S=C(Cc1cccnc1)N1CCOCC1` here?
A: > 4 mM (inactive)

Q: `CCc1sc(C(=O)NC)cc1Br` was tested. Which Kd did it give?
A: > 4 mM (inactive)

Q: With `CC(=O)O[C@@H]1CC2C(C)(C)CCC(=O)[C@]2(C)C2CC[C@@]3(C)[C@H](c4ccoc4)OC(=O)C4OC43[C@@]21C` (stereo partly drawn) as the compound, how does the Kd read?
A: > 4 mM (inactive)

Q: For `O=C(O)c1ccc(CSc2ncn[nH]2)cc1`, which Kd is on record?
A: > 4 mM (inactive)

Q: For `c1ccc(-n2nnnc2Oc2cccc3cccnc23)cc1`, which Kd is on record?
A: > 4 mM (inactive)

Q: With `CC(C)c1nnc(N)s1` as the compound, how does the Kd read?
A: > 4 mM (inactive)

Q: `c1ccc(Cc2nnc3sc(-c4ccccn4)nn23)cc1` was tested. Which Kd did it give?
A: > 4 mM (inactive)

Q: How did the Kd turn out when `CC(=O)c1c(C)nc(C)nc1NC(=O)C(C)C` was run?
A: > 4 mM (inactive)

Q: With `Nc1ccc(NS(=O)(=O)c2ccc(N)cc2)cc1` as the compound, how does the Kd read?
A: > 4 mM (inactive)

Q: Which Kd does the source give for `OCc1cccc2c1OCO2` here?
A: > 4 mM (inactive)

Q: `Nc1cccc2nonc12` was tested. Which Kd did it give?
A: > 4 mM (inactive)

Q: With `O=C(O)CN1CCNCC1` as the compound, how does the Kd read?
A: > 4 mM (inactive)

Q: For `COc1cc(-c2coc3cc(OCc4ccccc4)c(OC)c(O)c3c2=O)cc(O)c1OC`, which Kd is on record?
A: > 4 mM (inactive)

Q: For `O=C(O)Cn1cc(C(=O)C2CC2)c2ccccc21`, which Kd is on record?
A: > 4 mM (inactive)

Q: `O=C(O)CNC(=O)c1ccccc1Cl` was tested. Which Kd did it give?
A: > 4 mM (inactive)

Q: Which Kd does the source give for `O=C(O)c1ccccc1N1CCOCC1` here?
A: > 4 mM (inactive)

Q: For `CCOc1ccc2ccccc2c1C(=O)N1CCOCC1`, which Kd is on record?
A: > 4 mM (inactive)

Q: For `COc1ccc2cc3[n+](cc2c1OC)CCc1cc2c(cc1-3)OCO2`, which Kd is on record?
A: > 4 mM (inactive)

Q: `CSc1n[nH]c(NCc2ccccc2)n1` was tested. Which Kd did it give?
A: > 4 mM (inactive)

Q: Which Kd does the source give for `CCOC(=O)c1cnc2sccn2c1=O` here?
A: > 4 mM (inactive)

Q: How did the Kd turn out when `C=C1C[C@]23C[C@@]1(O)CC[C@H]2[C@@]12C=C[C@H](O)C(C)(C(=O)O1)[C@H]2[C@@H]3C(=O)O` was run?
A: > 4 mM (inactive)

Q: For `O=C1CN(C(=O)c2ccccc2)c2ccccc2N1`, which Kd is on record?
A: > 4 mM (inactive)

Q: With `COc1ccc(-c2coc3cc(O)ccc3c2=O)c(O)c1O` as the compound, how does the Kd read?
A: > 4 mM (inactive)

Q: With `Cc1nc2[nH]onc2c2nccc(=O)c12` as the compound, how does the Kd read?
A: > 4 mM (inactive)

Q: For `O=[n+]1cc(C2=CC=CCC2)n([O-])c2c1CCCCC2`, which Kd is on record?
A: > 4 mM (inactive)

Q: `OCc1ccc(CN2CCOCC2)cc1` was tested. Which Kd did it give?
A: > 4 mM (inactive)

Q: With `O=C(Nc1cccnc1)c1cccs1` as the compound, how does the Kd read?
A: > 4 mM (inactive)

Q: With `O=C(CNC(=O)c1cccs1)NC1=NCCS1` as the compound, how does the Kd read?
A: > 4 mM (inactive)

Q: `NC(=O)c1ccc(NC(=O)c2ccco2)cc1` was tested. Which Kd did it give?
A: > 4 mM (inactive)
